Patent EP0044212B1, “Herbicidal o-alkylsulfonyloxy- and o-alkylsulfonylamino-benzenesulfonamides” (E.I. DU PONT DE NEMOURS AND COMPANY, priority 1980, dated 1982)

Tests used:
Crabgrass [1] = experiment: Test B pre-emergence on Fallsington silt loam; format: in vivo, Digitaria sanguinalis; design: scale not given here; conditions: 28 days
Excerpt: (§1) Two plastic bulb pans were filled with fertilized and limed Fallsington silt loam soil. One pan was planted with corn, sorghum, Kentucky bluegrass and several grassy weeds. The other pan was planted with cotton, soybeans, purple nutsedge (Cyperus rotundus), and several broadleaf weeds. The following grassy and broadleaf weeds were planted: crabgrass (Digitaria sanguinalis), barnyardgrass (Echinochloa crusgalli), wild oats (Avena fatua), johnsongrass (Sorghum halepense), dallisgrass (Paspalum dilatatum), giant foxtail (Setaria faberii), cheatgrass (Bromus secalinus), mustard (Brassica arvensis), cocklebur (Xanthium pensylvanicum), pigweed (Amaranthus retroflexus), morningglory (Ipomoea hederacea), cassia (Cassia tora), teaweed (Sida spinosa), velvetleaf (Abutilon theophrasti), and jimsonweed (Datura stramonium). A 12.5 cm diameter plastic pot was also filed with prepared soil and planted with rice and wheat. Another 12.5 cm pot was planted with sugarbeets. The above four containers were treated pre- emergence with several test compounds within the scope of the invention.
(§2) Twenty-eight days after treatment, the plants were evaluated and visually rated for response to the chemical treatments utilizing the rating system described previously for Test A. The data are summarized in Table B.

Barnyardgrass [2] = experiment: Test B pre-emergence on Fallsington silt loam; format: in vivo, Echinochloa crusgalli; conditions: 28 days
Excerpt: as §1, §2

Wild Oats [3] = experiment: Test B pre-emergence on Fallsington silt loam; format: in vivo, Avena fatua; design: scale not given here; conditions: 28 days
Excerpt: as §1, §2

Johnsongrass = experiment: Test B pre-emergence on Fallsington silt loam; format: in vivo, Sorghum halepense; design: scale not given here; conditions: 28 days
Excerpt: as §1, §2

Dallisgrass = experiment: Test B pre-emergence on Fallsington silt loam; format: in vivo, Paspalum dilatatum; design: scale not given here; conditions: 28 days
Excerpt: as §1, §2

Ky. bluegrass = experiment: Test B pre-emergence on Fallsington silt loam; format: in vivo, Kentucky bluegrass; design: scale not given here; conditions: 28 days
Excerpt: as §1, §2

Cheatgrass = experiment: Test B pre-emergence on Fallsington silt loam; format: in vivo, Bromus secalinus; conditions: 28 days
Excerpt: as §1, §2

Corn [4] = experiment: Test B pre-emergence on Fallsington silt loam; format: in vivo; design: scale not given here; conditions: 28 days
Excerpt: as §1, §2

Sugarbeets [5] = experiment: Test B pre-emergence on Fallsington silt loam; format: in vivo; design: scale not given here; conditions: 0.25 kg/ha, 28 days
Excerpt: as §1, §2

Wheat [6] = experiment: Test B pre-emergence on Fallsington silt loam; format: in vivo; design: scale not given here; conditions: 28 days
Excerpt: as §1, §2

Cocklebur = experiment: Test B pre-emergence on Fallsington silt loam; format: in vivo, Xanthium pensylvanicum; conditions: 0.25 kg/ha, 28 days
Excerpt: as §1, §2

Nutsedge [7] = experiment: Test B pre-emergence on Fallsington silt loam; format: in vivo, Cyperus rotundus; conditions: 28 days
Excerpt: as §1, §2

Morningglory = experiment: Test B pre-emergence on Fallsington silt loam; format: in vivo, Ipomoea hederacea; conditions: 0.06 kg/ha, 28 days
Excerpt: as §1, §2

Soybean = experiment: Test B pre-emergence on Fallsington silt loam; format: in vivo, soybeans; conditions: 28 days
Excerpt: as §1, §2

Corn [8] = experiment: Test F over-the-top soil/foliage treatment; format: in vivo; conditions: soil/foliage spray, ~14 days
Method: (§3) The test chemicals, dissolved in a non-phytotoxic solvent, were applied in an overall spray to the foliage and surrounding […] of selected plant species. […] Approximately fourteen days after treatment, all species were visually compared to untreated controls and rated for response to treatment.
(§4) All plant species were seeded in Woodstown sandy loam soil and grown in a greenhouse. The following species were grown in soil contained in plastic pots (25 cm diameter by 13 cm deep): soybeans, cotton, alfalfa, corn, rice, wheet, sorghum, velvetleaf (Abutilon theophrasti), sesbania (Sesbania exaltata), Cassia (Cassia tora), morningglory (Ipomoea hederacea), jimsonweed (Datura stramonium), cocklebur (Xanthium pensylvanicum), crabgrass (Digitaria spp.), nutsedge (Cyperus rotundus), barnyardgrass (Echinochloa crusgalli), giant foxtail (Setaria faberii) and wild oats (Avena fatua). The following species were grown in soil in a paper cup (12 cm diameter by 13 cm deep): sunflower, sugarbeets, and mustard. All plants were sprayed approximately 14 days after planting.

Mustard = experiment: Test F over-the-top soil/foliage treatment; format: in vivo; conditions: soil/foliage spray, ~14 days
Method: as §3, §4

Sugarbeets [9] = experiment: Test F over-the-top soil/foliage treatment; format: in vivo; conditions: soil/foliage spray; 0.06 kg/ha; ~14 days
Method: as §3, §4

Sunflower = experiment: Test F over-the-top soil/foliage treatment; format: in vivo; conditions: soil/foliage spray, ~14 days
Method: as §3, §4

Sesbania = experiment: Test F over-the-top soil/foliage treatment; format: in vivo, Sesbania exaltata; design: scale not given here; conditions: soil/foliage spray; 0.12 kg/ha; ~14 days
Method: as §3, §4

Alfalfa = experiment: Test F over-the-top soil/foliage treatment; format: in vivo; design: scale not given here; conditions: soil/foliage spray; 0.06 kg/ha; ~14 days
Method: as §3, §4

Sorghum = experiment: Test F over-the-top soil/foliage treatment; format: in vivo; design: scale not given here; conditions: soil/foliage spray, ~14 days
Method: as §3, §4

Jimsonweed = experiment: Test F over-the-top soil/foliage treatment; format: in vivo, Datura stramonium; conditions: soil/foliage spray; 0.12 kg/ha; ~14 days
Method: as §3, §4

Crabgrass [10] = experiment: Test F over-the-top soil/foliage treatment; format: in vivo, Digitaria spp.; design: scale not given here; conditions: soil/foliage spray, ~14 days
Method: as §3, §4

Nutsedge [11] = experiment: Test F over-the-top soil/foliage treatment; format: in vivo, Cyperus rotundus; design: scale not given here; conditions: soil/foliage spray, ~14 days
Method: as §3, §4

Barnyardgrass [12] = experiment: Test F over-the-top soil/foliage treatment; format: in vivo, Echinochloa crusgalli; design: scale not given here; conditions: soil/foliage spray, ~14 days
Method: as §3, §4

Wheat [13] = experiment: Test F over-the-top soil/foliage treatment; format: in vivo, wheet; design: scale not given here; conditions: soil/foliage spray, ~14 days
Method: as §3, §4

Giant Foxtail = experiment: Test F over-the-top soil/foliage treatment; format: in vivo, Setaria faberii; design: scale not given here; conditions: soil/foliage spray, ~14 days
Method: as §3, §4

Wild Oats [14] = experiment: Test F over-the-top soil/foliage treatment; format: in vivo, Avena fatua; design: scale not given here; conditions: soil/foliage spray, ~14 days
Method: as §3, §4

For `CCCS(=O)(=O)Oc1ccccc1S(=O)(=O)NC(=O)Nc1nc(C)nc(OC)n1` [Compound 39, 2-hydroxy-N-[(4-methoxy-6-methyl-1,3,5-triazin-2-yl)aminocarbonyl]benzenesulfonamide, 1-propanesulfonate], the Crabgrass response rating (Crabgrass [1]; 0.06 kg/ha) was 2G, the Crabgrass response rating (Crabgrass [1]; 0.25 kg/ha) was 2G and the Barnyardgrass response rating (Barnyardgrass [2]; 0.06 kg/ha) was 4G. For the same molecule, the Barnyardgrass response rating (Barnyardgrass [2]; 0.25 kg/ha) was 5G, the “Wild Oats response rating” value (Wild Oats [3]; 0.06 kg/ha) was 3G and the “Wild Oats response rating” value (Wild Oats [3]; 0.25 kg/ha) was 3G. For the same molecule, the Johnsongrass response rating (Johnsongrass; 0.06 kg/ha) was 4G, the Johnsongrass response rating (Johnsongrass; 0.25 kg/ha) was 3G and the Dallisgrass response rating (Dallisgrass; 0.06 kg/ha) was 3G. The Dallisgrass response rating (Dallisgrass; 0.25 kg/ha) was 0, the “Ky. bluegrass response rating” value (Ky. bluegrass; 0.06 kg/ha) was 2G and the “Ky. bluegrass response rating” value (Ky. bluegrass; 0.25 kg/ha) was 4G. It also gave a Cheatgrass response rating (Cheatgrass; 0.06 kg/ha) of 0, a Cheatgrass response rating (Cheatgrass; 0.25 kg/ha) of 3G and a Corn response rating (Corn [4]; 0.06 kg/ha) of 2G. It also gave a Corn response rating (Corn [4]; 0.25 kg/ha) of 4G, a Sugarbeets response rating (Sugarbeets [5]) of 10C and a Wheat response rating (Wheat [6]; 0.06 kg/ha) of 0. For the same molecule, the Wheat response rating (Wheat [6]; 0.25 kg/ha) was 0, the Cocklebur response rating (Cocklebur) was 10C and the Nutsedge response rating (Nutsedge [7]; 0.06 kg/ha) was 4G. It also gave a Nutsedge response rating (Nutsedge [7]; 0.25 kg/ha) of 6G, a Morningglory response rating (Morningglory) of 9G and a Soybean response rating (Soybean; 0.06 kg/ha) of 3G. It also gave a Soybean response rating (Soybean; 0.25 kg/ha) of 4G, a Corn response rating (Corn [8]; 0.007 kg/ha) of 2G and a Corn response rating (Corn [8]; 0.06 kg/ha) of 0. It also gave a Corn response rating (Corn [8]; 0.12 kg/ha) of 0, a Mustard response rating (Mustard; 0.06 kg/ha) of 10C and a Mustard response rating (Mustard; 0.12 kg/ha) of 10C. The Sugarbeets response rating (Sugarbeets [9]) was 10C, the Sunflower response rating (Sunflower; 0.015 kg/ha) was 10C and the Sunflower response rating (Sunflower; 0.06 kg/ha) was 10C. For the same molecule, the Sunflower response rating (Sunflower; 0.12 kg/ha) was 10C, the Sesbania response rating (Sesbania) was 10C and the Alfalfa response rating (Alfalfa) was 10C. For the same molecule, the Sorghum response rating (Sorghum; 0.007 kg/ha) was 3G, the Sorghum response rating (Sorghum; 0.03 kg/ha) was 5G and the Sorghum response rating (Sorghum; 0.06 kg/ha) was 0. It also gave a Sorghum response rating (Sorghum; 0.12 kg/ha) of 0, a Jimsonweed response rating (Jimsonweed) of 0 and a Crabgrass response rating (Crabgrass [10]; 0.007 kg/ha) of 0. It also gave a Crabgrass response rating (Crabgrass [10]; 0.015 kg/ha) of 0, a Crabgrass response rating (Crabgrass [10]; 0.03 kg/ha) of 0 and a Crabgrass response rating (Crabgrass [10]; 0.06 kg/ha) of 0. For the same molecule, the Crabgrass response rating (Crabgrass [10]; 0.12 kg/ha) was 0, the Nutsedge response rating (Nutsedge [11]; 0.007 kg/ha) was 5G and the Nutsedge response rating (Nutsedge [11]; 0.015 kg/ha) was 0. For the same molecule, the Nutsedge response rating (Nutsedge [11]; 0.03 kg/ha) was 3G, the Nutsedge response rating (Nutsedge [11]; 0.06 kg/ha) was 0 and the Nutsedge response rating (Nutsedge [11]; 0.12 kg/ha) was 1G. The Barnyardgrass response rating (Barnyardgrass [12]; 0.007 kg/ha) was 2G, the Barnyardgrass response rating (Barnyardgrass [12]; 0.015 kg/ha) was 0 and the Barnyardgrass response rating (Barnyardgrass [12]; 0.03 kg/ha) was 3G. The Barnyardgrass response rating (Barnyardgrass [12]; 0.06 kg/ha) was 0, the Barnyardgrass response rating (Barnyardgrass [12]; 0.12 kg/ha) was 0 and the Wheat response rating (Wheat [13]; 0.007 kg/ha) was 0. The Wheat response rating (Wheat [13]; 0.015 kg/ha) was 0, the Wheat response rating (Wheat [13]; 0.03 kg/ha) was 0 and the Wheat response rating (Wheat [13]; 0.06 kg/ha) was 0. The Wheat response rating (Wheat [13]; 0.12 kg/ha) was 0, the “Giant Foxtail response rating” value (Giant Foxtail; 0.007 kg/ha) was 1G and the “Giant Foxtail response rating” value (Giant Foxtail; 0.03 kg/ha) was 2G. The “Giant Foxtail response rating” value (Giant Foxtail; 0.06 kg/ha) was 0, the “Giant Foxtail response rating” value (Giant Foxtail; 0.12 kg/ha) was 0 and the “Wild Oats response rating” value (Wild Oats [14]; 0.007 kg/ha) was 0. The “Wild Oats response rating” value (Wild Oats [14]; 0.03 kg/ha) was 2G, the “Wild Oats response rating” value (Wild Oats [14]; 0.06 kg/ha) was 0 and the “Wild Oats response rating” value (Wild Oats [14]; 0.12 kg/ha) was 0.
